By IC50 is commonly meant the concentration at which inhibition is half-maximal. Low readings indicate greater potency in that assay, high ones weaker potency in that assay.

Each structure is given as a SMILES string.

These results are taken from patent publication US6589984B1, “Benzofurylpyrone derivatives” (Teijin Limited, priority 1998, dated 2003).

One assay deals with Human hepatic cancer cells HepG2. Put plainly: TG production inhibiting activity (14C-acetic acid incorporation into TG) in HepG2 cells. To be noted: Homo sapiens, HepG2; group criterion, alternatives: IC50 at least 10 μM and less than 100 μM, or at least 5% and less than 30% inhibition at 1 μM, or at least 30% and less than 50% inhibition at 10 μM. The assay is classed as cell-based. The gist of the method:
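HepG2 cells cultured 6 days in eRDF with 10% bovine serum, then in serum-free eRDF given compound (diluted from 20 mM DMSO stock) plus 14C-acetic acid for one day at 37 °C, 5% CO2. Lipids extracted with hexane/isopropanol 2:1 and separated by TLC; the TG spot was cut out and counted by liquid scintillation.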
The compound `Cc1c(-c2cc3cc(OCc4ccccc4Cl)ccc3o2)oc(=O)c(C)c1O` [Example 240, 6-(5-(2-chlorobenzyloxy)benzofuran-2-yl)-3,5-dimethyl-4-hydroxy-2H-pyran-2-one] returned an IC50 of 10 to 100 µM.

`Cc1c(-c2cc3cc(N(C)C(=O)c4cccnc4)ccc3o2)oc(=O)c(C)c1O` [Example 253, 3,5-dimethyl-4-hydroxy-6-(5-(N-methyl-N-(3-pyridylcarbonyl)amino)benzofuran-2-yl)-2H-pyran-2-one] came in with an IC50 of 10 to 100 µM.

With `Cc1c(-c2cc3cc(N(C)C(=O)C(C)C)ccc3o2)oc(=O)c(C)c1O` [Example 254, 3,5-dimethyl-4-hydroxy-6-(5-(N-isobutyryl-N-methylamino)benzofuran-2-yl)-2H-pyran-2-one], the IC50 was 10 to 100 µM.

As for `Cc1c(-c2cc3c(OCc4ccccc4)cccc3o2)oc(=O)c(C)c1O` [Example 258, 6-(4-benzyloxybenzofuran-2-yl)-3,5-dimethyl-4-hydroxy-2H-pyran-2-one], the concentration for half-maximal inhibition (IC50) lay within 10 to 100 µM.

Consider `CC(=O)Oc1c(C)c(-c2cc3cc(O)ccc3o2)oc(=O)c1C` [Example 261, 4-acetyloxy-3,5-dimethyl-6-(5-hydroxybenzofuran-2-yl)-2H-pyran-2-one], for which the half-maximal inhibitory concentration (IC50) fell in the range of 10 to 100 µM.

Regarding `Cc1c(-c2cc3cc(O)ccc3o2)oc(=O)c(C)c1O` [Example 262, 3,5-dimethyl-4-hydroxy-6-(5-hydroxybenzofuran-2-yl)-2H-pyran-2-one], the IC50 lay within 10 to 100 µM.

Regarding `COc1ccc(C(=O)Oc2ccc3oc(-c4oc(=O)c(C)c(OC(C)=O)c4C)cc3c2)cc1` [Example 263, 4-acetyloxy-3,5-dimethyl-6-(5-(4-methoxybenzoyloxy)benzofuran-2-yl)-2H-pyran-2-one], the IC50 was 10 to 100 µM.

In turn, `CC(=O)Oc1c(C)c(-c2cc3cc(C(=O)O)ccc3o2)oc(=O)c1C` [Example 264, 4-acetyloxy-6-(5-carboxybenzofuran-2-yl)-3,5-dimethyl-2H-pyran-2-one] came in with an IC50 of 10 to 100 µM.

The compound `COc1cccc2oc(-c3oc(=O)c(C)c(OC(C)=O)c3C)cc12` [Example 266, 4-acetyloxy-3,5-dimethyl-6-(4-methoxybenzofuran-2-yl)-2H-pyran-2-one] gave an IC50 of 10 to 100 µM.

Regarding `COc1cccc2oc(-c3oc(=O)c(C)c(O)c3C)cc12` [Example 267, 3,5-dimethyl-4-hydroxy-6-(4-methoxybenzofuran-2-yl)-2H-pyran-2-one], the half-inhibitory concentration (IC50) is 10 to 100 µM.

`CC(=O)Oc1ccc2oc(-c3oc(=O)c(C)c(OC(C)=O)c3C)cc2c1` [Example 269, 4-acetyloxy-6-(5-acetyloxybenzofuran-2-yl)-3,5-dimethyl-2H-pyran-2-one]: the 50% inhibitory concentration (IC50) is 10 to 100 µM.

`Cc1c(-c2cc3ccc(O)cc3o2)oc(=O)c(C)c1O` [Example 272, 3,5-dimethyl-4-hydroxy-6-(6-hydroxybenzofuran-2-yl)-2H-pyran-2-one] showed a 50% inhibitory concentration (IC50) of 10 to 100 µM.

Staying with this assay, now noted: Homo sapiens, HepG2; group criterion, alternatives: IC50 less than 10 μM, or at least 30% inhibition at 1 μM, or at least 50% inhibition at 10 μM.
Turning to `COc1cccc(COc2ccc3oc(-c4oc(=O)c(C)c(O)c4C)cc3c2)c1` [Example 236, 3,5-dimethyl-4-hydroxy-6-(5-(3-methoxybenzyloxy)benzofuran-2-yl)-2H-pyran-2-one], the IC50 is under 10 µM.

Consider `Cc1c(-c2cc3cc(OCc4cccc(Cl)c4)ccc3o2)oc(=O)c(C)c1O` [Example 242, 6-(5-(3-chlorobenzyloxy)benzofuran-2-yl)-3,5-dimethyl-4-hydroxy-2H-pyran-2-one], for which the 50% inhibitory concentration (IC50) is under 10 µM.

In turn, `Cc1c(-c2cc3cc(OCc4cncs4)ccc3o2)oc(=O)c(C)c1O` [Example 243, 3,5-dimethyl-4-hydroxy-6-(5-(5-thiazolylmethoxy)benzofuran-2-yl)-2H-pyran-2-one] registered a concentration for half-maximal inhibition (IC50) of under 10 µM.

`CC(=O)Oc1c(C)c(-c2cc3cc(OCc4sc(Cl)nc4Cl)ccc3o2)oc(=O)c1C` [Example 244, 4-acetyloxy-6-(5-(2,4-dichloro-5-thiazolylmethoxy)benzofuran-2-yl)-3,5-dimethyl-2H-pyran-2-one]: the concentration for half-maximal inhibition (IC50) is under 10 µM.

As for `Cc1c(-c2cc3cc(OCc4ccsc4)ccc3o2)oc(=O)c(C)c1O` [Example 246, 3,5-dimethyl-4-hydroxy-6-(5-(3-thienylmethoxy)benzofuran-2-yl)-2H-pyran-2-one], the concentration for half-maximal inhibition (IC50) was under 10 µM.

With `Cc1c(-c2cc3cc(OCc4cocn4)ccc3o2)oc(=O)c(C)c1O` [Example 249, 3,5-dimethyl-4-hydroxy-6-(5-(4-oxazolylmethoxy)benzofuran-2-yl)-2H-pyran-2-one], the concentration for half-maximal inhibition (IC50) is under 10 µM.

With `Cc1c(-c2cc3cc(N(C)C(=O)c4ccccc4)ccc3o2)oc(=O)c(C)c1O` [Example 250, 6-(5-(N-benzoyl-N-methylamino)benzofuran-2-yl)-3,5-dimethyl-4-hydroxy-2H-pyran-2-one], the concentration for half-maximal inhibition (IC50) is under 10 µM.

As to `Cc1c(-c2cc3cc(N(C)C(=O)Cc4ccccc4)ccc3o2)oc(=O)c(C)c1O` [Example 251, 3,5-dimethyl-4-hydroxy-6-(5-(N-methyl-N-(phenylacetyl)amino)benzofuran-2-yl)-2H-pyran-2-one], the IC50 was under 10 µM.

In turn, `Cc1c(-c2cc3cc(N(C)C(=O)c4cccs4)ccc3o2)oc(=O)c(C)c1O` [Example 252, 3,5-dimethyl-4-hydroxy-6-(5-(N-methyl-N-(2-thienylcarbonyl)amino)benzofuran-2-yl)-2H-pyran-2-one] came in with an IC50 of under 10 µM.

On to `Cc1c(-c2cc3cc(N(C)C(=O)OC(C)(C)C)ccc3o2)oc(=O)c(C)c1O` [Example 255, 6-(5-(N-(t-butoxycarbonyl)-N-methylamino)benzofuran-2-yl)-3,5-dimethyl-4-hydroxy-2H-pyran-2-one], for which the half-inhibitory concentration (IC50) was under 10 µM.

`CC(=O)Oc1c(C)c(-c2cc3cc(OS(=O)(=O)C(F)(F)F)ccc3o2)oc(=O)c1C` [Example 257, 4-acetyloxy-3,5-dimethyl-6-(5-trifluoromethanesulfonyloxybenzofuran-2-yl)-2H-pyran-2-one] showed a 50% inhibitory concentration (IC50) of under 10 µM.

`COC(=O)c1ccc2oc(-c3oc(=O)c(C)c(OC(C)=O)c3C)cc2c1` [Example 259, 4-acetyloxy-3,5-dimethyl-6-(5-(methoxycarbonyl)benzofuran-2-yl)-2H-pyran-2-one] showed an IC50 of under 10 µM.

`CC(=O)Oc1c(C)c(-c2cc3c(OCc4ccccc4)cccc3o2)oc(=O)c1C` [Example 260, 4-acetyloxy-6-(4-benzyloxybenzofuran-2-yl)-3,5-dimethyl-2H-pyran-2-one] yielded an IC50 of under 10 µM.

With `CC(=O)Oc1c(C)c(-c2cc3c(OC(C)=O)cccc3o2)oc(=O)c1C` [Example 265, 4-acetyloxy-6-(4-acetyloxybenzofuran-2-yl)-3,5-dimethyl-2H-pyran-2-one], the IC50 is under 10 µM.

Compound `COc1ccc2oc(-c3oc(=O)c(C)c(OC(C)=O)c3C)cc2c1` [Example 268, 4-acetyloxy-3,5-dimethyl-6-(5-methoxybenzofuran-2-yl)-2H-pyran-2-one] came in with an IC50 of under 10 µM.

`CC(=O)Oc1c(C)c(-c2cc3cc(OCc4ccccc4)ccc3o2)oc(=O)c1C` [Example 270, 4-acetyloxy-6-(5-benzyloxybenzofuran-2-yl)-3,5-dimethyl-2H-pyran-2-one]: the half-inhibitory concentration (IC50) is under 10 µM.

Compound `Cc1c(-c2cc3cc(OCc4ccccc4)ccc3o2)oc(=O)c(C)c1O` [Example 271, 6-(5-benzyloxybenzofuran-2-yl)-3,5-dimethyl-4-hydroxy-2H-pyran-2-one] displayed a half-inhibitory concentration (IC50) of under 10 µM.
